Assay results published in PubChem BioAssay AID328 (DTP/NCI, 2004).
“And” between values parts separate entries of the source, which are not always exact repeats. Equal values may be shown once. Inconclusive results and toxic doses are left out.

Test system: BDF1 mice, P388 leukemia ip, median survival T/C
Test: NCI In Vivo Anticancer Drug Screen. Data for tumor model P388 Leukemia (intraperitoneal) in B6D2F1 (BDF1) mice
Conditions: endpoint: median survival time, higher = longer survival
Outline: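 Survival ratio, drug arm over vehicle arm, in mice with a transplanted tumour.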

[1] = dose: 100.0 mg/kg/injection, schedule: Q01DX001 (ip), vehicle: Klucel (hydroxypropylcellulose) (HPC)
[2] = dose: 200.0 mg/kg/injection, schedule: Q01DX001 (ip), vehicle: Klucel (hydroxypropylcellulose) (HPC)
[3] = dose: 400.0 mg/kg/injection, schedule: Q01DX001 (ip), vehicle: Klucel (hydroxypropylcellulose) (HPC)
[4] = dose: 50.0 mg/kg/injection, schedule: Q01DX009 (ip), vehicle: saline with Tween-80
[5] = dose: 100.0 mg/kg/injection, schedule: Q01DX009 (ip), vehicle: saline with Tween-80
[6] = dose: 150.0 mg/kg/injection, schedule: Q01DX009 (ip), vehicle: saline with Tween-80
[7] = dose: 50.0 mg/kg/injection, schedule: Q04DX003 (ip), vehicle: Klucel (hydroxypropylcellulose) (HPC)
[8] = dose: 100.0 mg/kg/injection, schedule: Q04DX003 (ip), vehicle: Klucel (hydroxypropylcellulose) (HPC)
[9] = dose: 200.0 mg/kg/injection, schedule: Q04DX003 (ip), vehicle: Klucel (hydroxypropylcellulose) (HPC)
[10] = dose: 100.0 mg/kg/injection, schedule: Q01DX009 (ip), vehicle: Klucel (hydroxypropylcellulose) (HPC)
[11] = dose: 200.0 mg/kg/injection, schedule: Q01DX009 (ip), vehicle: Klucel (hydroxypropylcellulose) (HPC)
[12] = dose: 400.0 mg/kg/injection, schedule: Q01DX009 (ip), vehicle: Klucel (hydroxypropylcellulose) (HPC)
[13] = dose: 400.0 mg/kg/injection, schedule: Q04DX003 (ip), vehicle: Klucel (hydroxypropylcellulose) (HPC)
[14] = dose: 200.0 mg/kg/injection, schedule: Q01DX009 (ip), vehicle: saline with Tween-80
[15] = dose: 400.0 mg/kg/injection, schedule: Q01DX009 (ip), vehicle: saline with Tween-80
[16] = dose: 100.0 mg/kg/injection, schedule: Q04DX003 (ip), vehicle: saline with Tween-80
[17] = dose: 200.0 mg/kg/injection, schedule: Q04DX003 (ip), vehicle: saline with Tween-80
[18] = dose: 400.0 mg/kg/injection, schedule: Q04DX003 (ip), vehicle: saline with Tween-80
[19] = dose: 50.0 mg/kg/injection, schedule: Q01DX009 (ip), vehicle: Klucel (hydroxypropylcellulose) (HPC)
[20] = dose: 0.5 mg/kg/injection, schedule: Q01DX009 (ip), vehicle: saline
[21] = dose: 1.0 mg/kg/injection, schedule: Q01DX009 (ip), vehicle: saline

COc1cc2c3c(c4ccc(OC)c(OC)c4c2cc1OC)CN1CCC[C@@H]1C3
T/C (dose: 1.25 mg/kg/injection, schedule: Q01DX010 (ip), vehicle: saline): 113 % of control | T/C (dose: 2.5 mg/kg/injection, schedule: Q01DX010 (ip), vehicle: saline): 154 % of control | T/C (dose: 6.0 mg/kg/injection, schedule: Q01DX010 (ip), vehicle: water): 150 % of control | T/C (dose: 8.0 mg/kg/injection, schedule: Q01DX010 (ip), vehicle: water): 170 % of control | T/C (dose: 10.0 mg/kg/injection, schedule: Q01DX010 (ip), vehicle: saline): 150 % of control | T/C (dose: 10.0 mg/kg/injection, schedule: Q01DX010 (ip), vehicle: water): 90 % of control

Clc1nnc(Nc2ccccc2)c2ccccc12
T/C [1]: 100 % of control | T/C [2]: 91 % of control | T/C [3]: 104 % of control

Cc1cc(O)c(C(C)C)cc1S(=O)(=O)O (tested in a mixture with another compound)
T/C (dose: 37.5 mg/kg/injection, schedule: Q01DX009 (ip), vehicle: Klucel (hydroxypropylcellulose) (HPC)): 95 % of control | T/C [4]: 100 % of control | T/C [5]: 95 % of control | T/C (dose: 150.0 mg/kg/injection, schedule: Q01DX009 (ip), vehicle: Klucel (hydroxypropylcellulose) (HPC)): 100 % of control | T/C [6]: 150 % of control

CC(=O)C(Cl)C(C)=O.CC(=O)C(Cl)C(C)=O.CO.CO.[Ni]
T/C (dose: 12.0 mg/kg/injection, schedule: Q01DX001 (ip), vehicle: Klucel (hydroxypropylcellulose) (HPC)): 108 % of control | T/C (dose: 25.0 mg/kg/injection, schedule: Q01DX001 (ip), vehicle: Klucel (hydroxypropylcellulose) (HPC)): 95 % of control | T/C (dose: 50.0 mg/kg/injection, schedule: Q01DX001 (ip), vehicle: Klucel (hydroxypropylcellulose) (HPC)): 112 % of control | T/C [1]: 104 % of control | T/C [3]: 118 % of control

O=C1c2ccccc2CCC12OC2c1ccccc1[N+](=O)[O-] (centres undefined)
T/C [7]: 110 % of control | T/C [8]: 100 % of control | T/C [9]: 110 % of control

COc1ccc2nc(NCN3C(=O)c4ccccc4C3=O)sc2c1
T/C [1]: 104 % of control | T/C [10]: 109 % of control | T/C [8]: 100 % of control | T/C [2]: 100 % of control | T/C [11]: 104 % of control | T/C [9]: 100 % of control | T/C [3]: 95 % of control | T/C [12]: 104 % of control | T/C [13]: 100 % of control

CCCCCCCCCCCC(=O)CCCC
T/C (dose: 100.0 mg/kg/injection, schedule: Q01DX009 (ip), vehicle: other): 110 % of control | T/C (dose: 200.0 mg/kg/injection, schedule: Q01DX009 (ip), vehicle: other): 90 % of control

COC(=O)C1(C)CCCC2(C)C1CCC13C=C(C(C)C)C(CC1C(=O)O)CC23 (centres undefined)
T/C [4]: 95 % of control | T/C [5]: 91 % of control | T/C [14]: 95 % of control

O=C(NCc1cnccn1)c1ccc([N+](=O)[O-])cc1
T/C [4]: 100 % of control | T/C [5]: 94 % of control | T/C [14]: 100 % of control | T/C [15]: 103 % of control

CCN(CC)c1cc(Cl)c(C=O)cc1Br
T/C [8]: 104 % of control | T/C [11]: 100 % of control | T/C [9]: 95 % of control | T/C [12]: 95 % of control | T/C [13]: 100 % of control

OC[C@@H](O)[C@@H](O)CO
T/C (dose: 100.0 mg/kg/injection, schedule: Q01DX010 (ip), vehicle: saline): 90 % of control | T/C (dose: 400.0 mg/kg/injection, schedule: Q01DX010 (ip), vehicle: saline): 110 % of control

Cc1c(Cl)c(Cl)c(Cl)c(Cl)c1Cl
T/C [5]: 118 % of control | T/C [16]: 104 % of control | T/C [14]: 95 % of control | T/C [17]: 104 % of control | T/C [15]: 95 % of control | T/C [18]: 95 % of control

O=c1[nH]c(Cl)ncc1F
T/C (dose: 67.0 mg/kg/injection, schedule: Q01DX009 (ip), vehicle: saline with Tween-80): 100 % of control | T/C (dose: 75.0 mg/kg/injection, schedule: Q04DX003 (ip), vehicle: saline with Tween-80): 113 % of control | T/C [5]: 103 % of control | T/C [6]: 107 % of control | T/C (dose: 150.0 mg/kg/injection, schedule: Q04DX003 (ip), vehicle: saline with Tween-80): 100 % of control | T/C (dose: 225.0 mg/kg/injection, schedule: Q01DX009 (ip), vehicle: saline with Tween-80): 111 % of control | T/C (dose: 300.0 mg/kg/injection, schedule: Q04DX003 (ip), vehicle: saline with Tween-80): 86 % of control

O=C(Nc1ccc(C(=O)Nc2cc(S(=O)(=O)O)cc3cccc(S(=O)(=O)O)c23)cc1)Nc1ccc(C(=O)Nc2cc(S(=O)(=O)O)cc3cccc(S(=O)(=O)O)c23)cc1
T/C [19]: 95 % of control | T/C [7]: 100 % of control | T/C [10]: 110 % of control | T/C [8]: 104 % of control | T/C [9]: 86 % of control

c1ccc2c(c1)ccc1c[n+]3ccccc3cc12
T/C (dose: 0.25 mg/kg/injection, schedule: Q01DX009 (ip), vehicle: saline): 90 % of control | T/C [20]: 90 % of control | T/C [21]: 90 % of control | T/C (dose: 2.0 mg/kg/injection, schedule: Q01DX009 (ip), vehicle: saline): 90 % of control

CN(C)C(=O)c1cccc(COc2ccc([N+](=O)[O-])cc2Cl)c1
T/C [1]: 109 % of control | T/C (dose: 132.0 mg/kg/injection, schedule: Q01DX009 (ip), vehicle: saline sonified): 91 % of control | T/C [2]: 109 % of control | T/C (dose: 200.0 mg/kg/injection, schedule: Q01DX009 (ip), vehicle: saline sonified): 87 % of control | T/C (dose: 300.0 mg/kg/injection, schedule: Q01DX009 (ip), vehicle: saline sonified): 87 % of control | T/C [3]: 104 % of control

CC(=O)OC1(CSc2ccccc2)CCCCC1
T/C [4]: 93 % of control

COC(=O)c1c2ccccc2cn1Cc1ccccc1
T/C (dose: 25.0 mg/kg/injection, schedule: Q01DX009 (ip), vehicle: saline with Tween-80): 89 % of control | T/C [4]: 90 % of control and 93 % of control | T/C [5]: 100 % of control | T/C [14]: 100 % of control

C[C@H]1CN1C1=CC(=O)C(N2C[C@@H]2C)=CC1=O
T/C (dose: 0.03 mg/kg/injection, schedule: Q01DX009 (ip), vehicle: saline): 109 % of control | T/C (dose: 0.12 mg/kg/injection, schedule: Q01DX009 (ip), vehicle: saline): 118 % of control | T/C (dose: 0.5 mg/kg/injection, schedule: Q01DX009 (ip), vehicle: Klucel (hydroxypropylcellulose) (HPC)): 160 % of control | T/C [20]: 191 % of control | T/C (dose: 1.0 mg/kg/injection, schedule: Q01DX009 (ip), vehicle: Klucel (hydroxypropylcellulose) (HPC)): 160 % of control | T/C [21]: 220 % of control | T/C (dose: 2.0 mg/kg/injection, schedule: Q01DX009 (ip), vehicle: Klucel (hydroxypropylcellulose) (HPC)): 200 % of control | T/C (dose: 4.0 mg/kg/injection, schedule: Q01DX009 (ip), vehicle: Klucel (hydroxypropylcellulose) (HPC)): 190 % of control

CCOc1ccc2nc(N)sc2c1
T/C (dose: 25.0 mg/kg/injection, schedule: Q01DX009 (ip), vehicle: Klucel (hydroxypropylcellulose) (HPC)): 118 % of control | T/C [19]: 109 % of control | T/C [1]: 86 % of control | T/C [10]: 104 % of control and 109 % of control | T/C [8]: 104 % of control | T/C [2]: 100 % of control | T/C [9]: 95 % of control | T/C [13]: 91 % of control

CCN(CC)P1(=S)OCC(C)O1 (centres undefined)
T/C [16]: 92 % of control | T/C [17]: 100 % of control | T/C [18]: 111 % of control
